According to ChEMBL document CHEMBL4184305, “Inhibition of histone lysine methyltransferases G9a and GLP by ejection of structural Zn(II)” (Bioorg Med Chem Lett, 2018):
Calls of active or inactive are those of the source. The rule behind the calls is not given here.

How the values were obtained:
[1] = biological target: T1, Histone-lysine N-methyltransferase EHMT2 (Homo sapiens) (UniProt Q96KQ7); experiment: Inhibition of wild type recombinant human histone lysine methyltransferase G9a (913 to 1193 residues) expressed in Escherichia coli Rosetta BL21 DE3 PlysS assessed as zinc ions ejection from Cys4-Zn finger at >50 uM after 1 hr by circular dichroism analysis
T1 sequence (whole entry): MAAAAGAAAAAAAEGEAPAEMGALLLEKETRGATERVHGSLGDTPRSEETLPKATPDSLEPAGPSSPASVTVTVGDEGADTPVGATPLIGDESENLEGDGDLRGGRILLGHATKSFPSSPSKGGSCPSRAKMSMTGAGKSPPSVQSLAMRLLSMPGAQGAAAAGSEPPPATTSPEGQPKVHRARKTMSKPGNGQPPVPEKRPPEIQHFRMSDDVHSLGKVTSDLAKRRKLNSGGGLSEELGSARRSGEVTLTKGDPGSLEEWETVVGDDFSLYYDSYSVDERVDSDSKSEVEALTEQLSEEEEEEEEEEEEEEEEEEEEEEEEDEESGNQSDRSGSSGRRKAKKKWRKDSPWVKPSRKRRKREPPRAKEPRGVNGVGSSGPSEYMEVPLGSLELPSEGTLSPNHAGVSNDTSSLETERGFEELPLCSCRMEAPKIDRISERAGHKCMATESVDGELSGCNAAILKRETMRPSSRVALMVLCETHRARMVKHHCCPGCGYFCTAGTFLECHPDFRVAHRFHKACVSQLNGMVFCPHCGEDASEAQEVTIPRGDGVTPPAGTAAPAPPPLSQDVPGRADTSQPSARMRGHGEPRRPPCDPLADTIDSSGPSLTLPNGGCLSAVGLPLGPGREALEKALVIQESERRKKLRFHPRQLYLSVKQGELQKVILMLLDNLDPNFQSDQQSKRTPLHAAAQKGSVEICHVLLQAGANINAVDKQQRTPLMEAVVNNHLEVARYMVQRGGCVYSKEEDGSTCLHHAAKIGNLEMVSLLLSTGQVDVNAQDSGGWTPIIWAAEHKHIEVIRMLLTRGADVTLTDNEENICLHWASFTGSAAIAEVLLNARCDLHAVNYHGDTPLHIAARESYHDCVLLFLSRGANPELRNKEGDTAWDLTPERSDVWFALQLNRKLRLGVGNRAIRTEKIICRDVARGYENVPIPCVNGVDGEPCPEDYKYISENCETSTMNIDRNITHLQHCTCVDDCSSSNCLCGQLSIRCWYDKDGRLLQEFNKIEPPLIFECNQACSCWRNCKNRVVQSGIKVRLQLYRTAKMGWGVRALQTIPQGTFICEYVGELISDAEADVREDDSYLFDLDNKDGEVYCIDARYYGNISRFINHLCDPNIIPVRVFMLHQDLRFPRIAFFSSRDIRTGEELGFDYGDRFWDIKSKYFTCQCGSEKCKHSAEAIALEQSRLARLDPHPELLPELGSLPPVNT

[2] = biological target: T2, Histone-lysine N-methyltransferase EHMT1 (Homo sapiens) (UniProt Q9H9B1); experiment: Induction of wild type recombinant human histone lysine methyltransferase GLP (951 to 1235 residues) protein unfolding at 100 uM by circular dichroism analysis
T2 sequence (whole entry): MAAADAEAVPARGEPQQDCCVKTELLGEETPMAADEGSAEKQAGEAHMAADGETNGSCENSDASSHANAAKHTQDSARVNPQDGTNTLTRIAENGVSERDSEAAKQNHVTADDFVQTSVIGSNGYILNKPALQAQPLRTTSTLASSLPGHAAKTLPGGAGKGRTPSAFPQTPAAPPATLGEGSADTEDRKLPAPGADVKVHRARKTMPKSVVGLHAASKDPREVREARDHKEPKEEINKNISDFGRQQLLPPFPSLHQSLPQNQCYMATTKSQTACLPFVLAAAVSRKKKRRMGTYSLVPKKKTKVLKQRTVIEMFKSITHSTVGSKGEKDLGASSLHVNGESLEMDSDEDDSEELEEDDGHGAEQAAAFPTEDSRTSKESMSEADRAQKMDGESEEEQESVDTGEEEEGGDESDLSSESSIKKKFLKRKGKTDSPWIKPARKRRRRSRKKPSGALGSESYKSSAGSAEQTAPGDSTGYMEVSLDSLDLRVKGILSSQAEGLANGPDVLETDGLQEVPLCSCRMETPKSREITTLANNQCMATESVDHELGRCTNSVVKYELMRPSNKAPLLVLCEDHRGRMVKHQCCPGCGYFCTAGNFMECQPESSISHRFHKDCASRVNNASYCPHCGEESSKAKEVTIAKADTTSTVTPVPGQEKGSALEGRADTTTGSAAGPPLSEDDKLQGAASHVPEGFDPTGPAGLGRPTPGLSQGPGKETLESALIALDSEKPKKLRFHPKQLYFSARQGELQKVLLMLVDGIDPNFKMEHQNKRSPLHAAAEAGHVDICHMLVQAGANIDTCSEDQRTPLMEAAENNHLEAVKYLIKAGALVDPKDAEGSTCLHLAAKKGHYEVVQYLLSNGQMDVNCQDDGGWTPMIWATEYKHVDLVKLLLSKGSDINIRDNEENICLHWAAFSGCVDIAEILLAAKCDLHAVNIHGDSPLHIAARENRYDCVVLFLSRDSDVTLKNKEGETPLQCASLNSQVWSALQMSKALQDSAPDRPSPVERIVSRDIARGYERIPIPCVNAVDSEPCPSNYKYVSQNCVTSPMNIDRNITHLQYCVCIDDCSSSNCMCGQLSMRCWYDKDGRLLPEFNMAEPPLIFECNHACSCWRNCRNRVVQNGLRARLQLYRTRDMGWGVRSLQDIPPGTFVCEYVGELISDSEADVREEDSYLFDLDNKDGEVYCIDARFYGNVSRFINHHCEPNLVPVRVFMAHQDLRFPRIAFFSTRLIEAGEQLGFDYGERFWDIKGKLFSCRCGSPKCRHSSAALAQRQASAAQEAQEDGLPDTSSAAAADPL

[3] = biological target: T2, Histone-lysine N-methyltransferase EHMT1 (Homo sapiens); experiment: (§1) Inhibition of wild type recombinant human histone lysine methyltransferase GLP (951 to 1235 residues) expressed in Escherichia coli Rosetta BL21 DE3 PlysS at 100 uM using ARTKQTARKSTGGKA as substrate preincubated for 5 mins followed by substrate/SAM addition measured after 60 mins by MALDI-TOF MS analysis
[4] = biological target: T1, Histone-lysine N-methyltransferase EHMT2 (Homo sapiens); experiment: as §1, with “G9a (913” for “GLP (951”, “1193” for “1235”
[5] = biological target: T2, Histone-lysine N-methyltransferase EHMT1 (Homo sapiens); experiment: Inhibition of wild type recombinant human histone lysine methyltransferase GLP (951 to 1235 residues) expressed in Escherichia coli Rosetta BL21 DE3 PlysS assessed as zinc ions ejection from Cys4-Zn finger at 2.5 to 100 uM measured up to 1 min by FluoZin-3 based fluorescence assay
[6] = biological target: T2, Histone-lysine N-methyltransferase EHMT1 (Homo sapiens); experiment: Inhibition of wild type recombinant human histone lysine methyltransferase GLP (951 to 1235 residues) expressed in Escherichia coli Rosetta BL21 DE3 PlysS assessed as zinc ions ejection from Cys4-Zn finger at >25 uM after 1 hr by circular dichroism analysis

CCN(CC)C(=S)SSC(=S)N(CC)CC
inhibition [1]: Active
Activity [2]: Active
inhibition [3]: > 50%
inhibition [4]: > 50%

O=c1c2ccccc2[se]n1-c1ccccc1 [EBSELEN]
inhibition [5]: Active
Activity [2]: Active
inhibition [3]: > 50%
inhibition [6]: Active
inhibition [4]: > 50%
